Where two headings read alike, the source gives them in different places.
Columns and labels:
hERG = target: T1, hERG (Homo sapiens, UniProt Q12809); parameters: hERG inhibition liability assay
T1 construct: gene KCNH2
Procedure: (§1) Independent of the effect of any antiparasitic potential of compounds, they were evaluated using a panel of early-toxicity assays comprising cytotoxicity (A549, human lung adenocarcinoma epithelial cell line and WI-38, human lung fibroblasts), mitochondrial toxicity (786-O, human renal carcinoma cell line), hERG inhibition,[31] cytochrome P450 inhibition (CYP1A2, CYP2C9, CYP2C19, CYP2D6, and CYP3A4),[31] and Aurora B kinase inhibition. […] For the two compounds active against TbPTR1 (4m and 4o), IC50 against hERG, cytochrome P450, and mitochondrial toxicity were determined (reported in Supporting Information). We observed that the dose of compounds 4m, 4o, 4c, and 3k was 4 μM in the potentiation assays. […] In the case of hERG, CYP2D6, CYP2A9, CYP2C19, and mitochondrial toxicity, there is a selectivity index of around 3–4 fold, thus showing an acceptable profile.  Figure 10 Summary heat map of the in vitro assays to determine possible liability issues for all synthesized compounds. Assays were performed to assess inhibition of hERG and five CYP isoforms (1A2, 2C9, 2C19, 2D6, and 3A4), growth inhibition of A549 and W1-38 cell lines, and mitochondrial toxicity at 10 μM. The hDHFR inhibition was determined at 100 μM. The data, expressed as percentage values, were organized by adopting a color code for rapid and intuitive visualization. The ideal compound should have all tiles blue, indicating a safe toxicological profile for progressing into the development pipeline. The cells are colored from blue (100% of cell growth at the tested concentration) to red (0% of cell growth at the tested concentration) for A549 and W1-38 and from blue (0% of inhibitory activity at the tested concentration) to red (100% of inhibitory activity at the tested concentration) for CYP isoforms, hERG, hDHFR, and mitochondrial toxicity.

CYP1A2 = target: T2, CYP1A2 (Homo sapiens, UniProt P05177); assay: in vitro; parameters: cytochrome P450 isoform inhibition liability assay
T2 sequence (P05177 1-516): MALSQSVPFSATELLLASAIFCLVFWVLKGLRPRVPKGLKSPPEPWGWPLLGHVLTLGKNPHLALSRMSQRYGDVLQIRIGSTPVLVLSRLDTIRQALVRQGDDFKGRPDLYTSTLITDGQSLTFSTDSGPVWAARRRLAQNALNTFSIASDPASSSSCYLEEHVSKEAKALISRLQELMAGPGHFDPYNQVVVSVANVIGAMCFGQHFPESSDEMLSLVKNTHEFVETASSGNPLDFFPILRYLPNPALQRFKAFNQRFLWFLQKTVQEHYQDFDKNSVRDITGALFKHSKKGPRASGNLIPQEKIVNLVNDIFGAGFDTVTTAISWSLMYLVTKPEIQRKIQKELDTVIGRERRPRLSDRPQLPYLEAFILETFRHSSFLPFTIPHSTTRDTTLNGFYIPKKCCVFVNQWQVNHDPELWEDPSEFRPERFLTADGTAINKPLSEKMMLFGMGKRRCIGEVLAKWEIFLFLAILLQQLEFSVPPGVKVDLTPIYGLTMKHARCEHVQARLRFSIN
Procedure: as §1

CYP2C9 = CYP2C9 (Homo sapiens, UniProt P11712); assay: in vitro; parameters: cytochrome P450 isoform inhibition liability assay
Procedure: as §1

CYP2D6 = CYP2D6 (Homo sapiens, UniProt P10635); assay: in vitro; parameters: cytochrome P450 isoform inhibition liability assay
Procedure: as §1

CYP3A4 = CYP3A4 (Homo sapiens, UniProt P08684); assay: in vitro; parameters: cytochrome P450 isoform inhibition liability assay
Procedure: as §1

CYP2C19 = CYP2C19 (Homo sapiens, UniProt P33261); assay: in vitro; parameters: cytochrome P450 isoform inhibition liability assay
Procedure: as §1

786-O = assay: cells; parameters: mitochondrial toxicity in 786-O renal carcinoma cells; details: Homo sapiens, 786-0; mitochondrial toxicity
Procedure: as §1

in vitro [1] = assay: in vitro; parameters: cytotoxicity, per cent cell growth of A549 cells; details: human, a549 cells; read-out: % cell growth A549 at 10uM
Procedure: as §1

TbPTR1 = target: T3, TbPTR1 (Trypanosoma brucei brucei, UniProt O76290); assay: biochemical; details: for inhibition at 50 µM: read-out: % Inhibition TbPTR1 at 50 μM
T3 construct: made in house
T3 sequence (O76290 1-268): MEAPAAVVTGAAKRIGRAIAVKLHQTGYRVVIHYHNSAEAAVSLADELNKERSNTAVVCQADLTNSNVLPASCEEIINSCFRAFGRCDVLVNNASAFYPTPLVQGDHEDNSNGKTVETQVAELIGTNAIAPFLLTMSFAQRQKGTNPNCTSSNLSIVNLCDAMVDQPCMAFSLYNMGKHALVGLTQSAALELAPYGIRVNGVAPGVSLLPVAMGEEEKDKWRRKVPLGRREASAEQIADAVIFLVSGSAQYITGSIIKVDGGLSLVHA

[2] = test system: T. b. brucei Lister 427 bloodstream forms; assay: In vitro activity against T. brucei (HTS SYBR Green I growth inhibition assay); type: cell-based, Trypanosoma brucei brucei; details: Trypanosoma brucei, standard deviation within ±10% of the value; for inhibition at 50 µM: read-out: % Inhibition T. brucei at 50 μM; for EC50: read-out: EC50 T. brucei
in vitro [3] = assay: in vitro; parameters: cytotoxicity, per cent cell growth of WI-38 fibroblasts; details: human, wi-38 cells; read-out: % cell growth W1-38 at 10uM
Procedure: as §1

hDHFR = target: T4, hDHFR (Homo sapiens, UniProt P00374); assay: biochemical; parameters: human DHFR enzyme inhibition; details: 10 uM
T4 construct: gene DHFR
T4 sequence (P00374 1-187): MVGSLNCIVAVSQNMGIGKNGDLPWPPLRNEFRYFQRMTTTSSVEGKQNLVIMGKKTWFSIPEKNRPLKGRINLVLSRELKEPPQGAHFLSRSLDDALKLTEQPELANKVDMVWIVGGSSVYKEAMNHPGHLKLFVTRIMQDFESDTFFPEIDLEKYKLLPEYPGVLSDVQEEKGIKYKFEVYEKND
Procedure: Figure 10 Summary heat map of the in vitro assays to determine possible liability issues for all synthesized compounds. Assays were performed to assess inhibition of hERG and five CYP isoforms (1A2, 2C9, 2C19, 2D6, and 3A4), growth inhibition of A549 and W1-38 cell lines, and mitochondrial toxicity at 10 μM. The hDHFR inhibition was determined at 100 μM. The data, expressed as percentage values, were organized by adopting a color code for rapid and intuitive visualization. The ideal compound should have all tiles blue, indicating a safe toxicological profile for progressing into the development pipeline. The cells are colored from blue (100% of cell growth at the tested concentration) to red (0% of cell growth at the tested concentration) for A549 and W1-38 and from blue (0% of inhibitory activity at the tested concentration) to red (100% of inhibitory activity at the tested concentration) for CYP isoforms, hERG, hDHFR, and mitochondrial toxicity.

T1 sequence (Q12809 whole entry): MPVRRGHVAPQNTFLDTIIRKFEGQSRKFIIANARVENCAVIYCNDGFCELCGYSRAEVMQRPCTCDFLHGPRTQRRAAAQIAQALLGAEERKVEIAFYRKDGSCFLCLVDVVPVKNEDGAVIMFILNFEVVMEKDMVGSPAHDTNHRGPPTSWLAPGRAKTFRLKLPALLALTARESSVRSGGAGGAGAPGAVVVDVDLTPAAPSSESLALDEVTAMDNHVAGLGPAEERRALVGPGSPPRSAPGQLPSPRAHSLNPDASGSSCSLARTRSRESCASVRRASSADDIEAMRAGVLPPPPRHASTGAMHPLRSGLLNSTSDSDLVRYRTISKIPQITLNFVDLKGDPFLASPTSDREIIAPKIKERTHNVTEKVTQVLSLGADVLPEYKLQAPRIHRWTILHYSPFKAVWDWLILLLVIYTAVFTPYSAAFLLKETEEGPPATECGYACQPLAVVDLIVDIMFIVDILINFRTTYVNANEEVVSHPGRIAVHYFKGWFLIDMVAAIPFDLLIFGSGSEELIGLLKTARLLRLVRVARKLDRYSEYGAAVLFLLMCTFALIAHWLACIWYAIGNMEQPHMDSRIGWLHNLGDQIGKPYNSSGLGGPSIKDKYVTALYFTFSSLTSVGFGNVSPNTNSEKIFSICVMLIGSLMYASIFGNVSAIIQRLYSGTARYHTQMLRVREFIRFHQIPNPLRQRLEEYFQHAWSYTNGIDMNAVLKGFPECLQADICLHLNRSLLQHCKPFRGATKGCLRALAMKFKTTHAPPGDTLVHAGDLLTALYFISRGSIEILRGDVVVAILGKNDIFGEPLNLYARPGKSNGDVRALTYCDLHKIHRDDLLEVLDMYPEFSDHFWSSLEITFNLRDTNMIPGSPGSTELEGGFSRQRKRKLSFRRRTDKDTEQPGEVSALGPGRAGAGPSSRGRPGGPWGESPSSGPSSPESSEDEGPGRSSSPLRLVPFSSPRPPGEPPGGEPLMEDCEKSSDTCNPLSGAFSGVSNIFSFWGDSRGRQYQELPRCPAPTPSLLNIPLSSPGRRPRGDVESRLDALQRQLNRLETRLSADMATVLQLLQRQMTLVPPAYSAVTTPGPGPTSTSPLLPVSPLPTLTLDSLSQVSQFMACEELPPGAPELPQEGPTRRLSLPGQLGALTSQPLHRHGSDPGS
CYP2C19, sequence (P33261 whole entry, canonical isoform): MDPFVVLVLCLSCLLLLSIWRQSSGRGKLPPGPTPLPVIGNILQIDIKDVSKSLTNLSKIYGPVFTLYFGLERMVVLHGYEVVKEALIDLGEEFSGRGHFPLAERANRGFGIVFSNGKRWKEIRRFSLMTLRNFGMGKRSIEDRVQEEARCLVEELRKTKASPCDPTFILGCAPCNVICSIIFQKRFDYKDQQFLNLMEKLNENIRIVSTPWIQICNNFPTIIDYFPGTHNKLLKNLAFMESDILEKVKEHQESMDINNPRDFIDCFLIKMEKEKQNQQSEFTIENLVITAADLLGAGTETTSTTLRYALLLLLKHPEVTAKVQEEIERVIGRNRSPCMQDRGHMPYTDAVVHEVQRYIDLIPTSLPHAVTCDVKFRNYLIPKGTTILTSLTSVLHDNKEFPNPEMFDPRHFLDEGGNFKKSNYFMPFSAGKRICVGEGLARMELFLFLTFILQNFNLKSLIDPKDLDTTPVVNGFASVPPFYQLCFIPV
CYP3A4, sequence (P08684 whole entry, canonical isoform): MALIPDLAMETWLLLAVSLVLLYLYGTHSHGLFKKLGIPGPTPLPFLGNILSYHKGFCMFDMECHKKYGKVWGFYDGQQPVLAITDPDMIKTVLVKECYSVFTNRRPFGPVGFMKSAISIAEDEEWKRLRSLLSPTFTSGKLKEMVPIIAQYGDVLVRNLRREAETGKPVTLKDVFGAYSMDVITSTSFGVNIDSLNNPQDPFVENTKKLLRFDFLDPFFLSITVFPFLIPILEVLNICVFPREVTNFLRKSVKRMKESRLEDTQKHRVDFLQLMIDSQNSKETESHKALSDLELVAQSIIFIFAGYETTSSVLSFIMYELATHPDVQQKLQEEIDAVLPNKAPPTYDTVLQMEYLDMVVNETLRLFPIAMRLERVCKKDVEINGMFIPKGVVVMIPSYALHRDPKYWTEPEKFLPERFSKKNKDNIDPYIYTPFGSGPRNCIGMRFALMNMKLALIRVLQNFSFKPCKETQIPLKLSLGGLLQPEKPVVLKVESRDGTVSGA
CYP2D6, sequence (P10635 whole entry, canonical isoform): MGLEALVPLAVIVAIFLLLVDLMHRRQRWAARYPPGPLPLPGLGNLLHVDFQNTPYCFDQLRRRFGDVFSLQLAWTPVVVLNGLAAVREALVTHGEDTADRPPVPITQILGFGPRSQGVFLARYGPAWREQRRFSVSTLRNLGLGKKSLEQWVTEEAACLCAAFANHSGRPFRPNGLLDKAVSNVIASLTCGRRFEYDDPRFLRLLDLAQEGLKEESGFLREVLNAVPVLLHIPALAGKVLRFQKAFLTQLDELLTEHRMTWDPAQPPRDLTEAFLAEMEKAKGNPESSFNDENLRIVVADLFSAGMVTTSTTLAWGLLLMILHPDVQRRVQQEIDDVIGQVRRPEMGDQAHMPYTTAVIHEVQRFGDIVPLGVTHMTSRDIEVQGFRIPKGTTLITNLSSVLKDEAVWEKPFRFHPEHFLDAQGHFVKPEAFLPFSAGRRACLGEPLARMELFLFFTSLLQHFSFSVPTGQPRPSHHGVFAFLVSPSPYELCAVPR
CYP2C9, sequence (P11712 whole entry, canonical isoform): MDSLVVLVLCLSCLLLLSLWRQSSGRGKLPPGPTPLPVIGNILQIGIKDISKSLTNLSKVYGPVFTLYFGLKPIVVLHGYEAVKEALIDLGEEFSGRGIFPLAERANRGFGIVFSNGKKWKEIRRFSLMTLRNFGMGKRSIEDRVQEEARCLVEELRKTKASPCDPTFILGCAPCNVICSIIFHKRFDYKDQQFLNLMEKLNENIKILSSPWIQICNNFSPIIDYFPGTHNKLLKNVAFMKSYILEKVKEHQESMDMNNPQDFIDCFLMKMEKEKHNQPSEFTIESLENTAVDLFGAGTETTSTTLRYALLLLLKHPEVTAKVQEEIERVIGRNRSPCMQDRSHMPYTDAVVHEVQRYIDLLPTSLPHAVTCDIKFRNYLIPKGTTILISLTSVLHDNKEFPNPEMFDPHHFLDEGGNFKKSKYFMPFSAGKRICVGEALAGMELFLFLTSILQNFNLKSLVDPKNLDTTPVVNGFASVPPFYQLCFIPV

SMILES	inhibition at 10 µM (hERG) [%]	inhibition at 10 µM (CYP1A2) [%]	inhibition at 10 µM (CYP2C9) [%]	inhibition at 10 µM (CYP2D6) [%]	inhibition at 10 µM (CYP3A4) [%]	inhibition at 10 µM (CYP2C19) [%]	inhibition at 10 µM (786-O) [%]	viability at 10 µM (in vitro [1]) [%]	% Inhibition TbPTR1 at 50 μM (TbPTR1; 50 μM compound)	inhibition at 50 µM (TbPTR1; 50 μM compound) [%]	inhibition at 50 µM [2] [%]	EC50 [2] [µM]	viability at 10 µM (in vitro [3]) [%]	IC50 (TbPTR1; dose-response 0.001-100 μM) [µM]	inhibition at 10 µM (hDHFR) [%]
NCc1ccc(-c2nnc(N)s2)cc1 [1b]	5.7 ± 3.9	-5.3 ± 10.2	-7.9 ± 0.8	-44.2 ± 10.4	23.7 ± 2.2	-17.9 ± 3.7	4.5 ± 2.5	114 ± 1.2	did not show inhibition	7.7 ± 0.6	93	0.8	98.7 ± 11.4		
Nc1nnc(-c2ccccc2)s1 [1a]	-3.3 ± 1.9	24.8 ± 1.8	3.9 ± 2.9	-8.5 ± 2.2	82.6 ± 1.6	76.9 ± 3.2	0.9 ± 10.6	119 ± 12.5		25.3 ± 1.2	21		101 ± 10.3		
Nc1nnc(NCCCc2ccccc2)s1 [4q, N2G(3Gphenylpropyl)G1,3,4GthiadiazoleG2,5Gdiamine]	81.1 ± 11.6	22.1 ± 2.7	18.6 ± 4.5	100.2 ± 0.4	24.2 ± 4.7	17.3 ± 4.6	5.6 ± 18	106 ± 3.7		30 ± 1.9	< 0		111 ± 43.7	57	
Nc1nnc(-c2ccccc2Cc2ccccc2)s1 [1m, 5-(2-benzylphenyl)-1,3,4-thiadiazol-2-amine]		68.1 ± 1	36.5 ± 5.4	69.2 ± 4.5	47.5 ± 4.8	90.5 ± 0.6									20
Nc1nnc(Cc2ccc3ccccc3c2)s1 [3e]	-5.6 ± 3.5	0.4 ± 1.3	-47.8 ± 3.9	-31.7 ± 1.7	-3.2 ± 3.8	-54.9 ± 9.3	4.3 ± 8.6	141 ± 5.6		20.9 ± 0.3	0.4		105 ± 38.5		
Nc1nnc(-c2cccc(-c3ccc(C(F)(F)F)cc3)c2)s1 [2e]		92.6 ± 1.1	25.6 ± 4	20 ± 5.8	17.9 ± 5.3	12.3 ± 5.4				6.6 ± 0.6	92.1	42			25
COCCCNc1nnc(N)s1 [4s, N2G(3Gmethoxypropyl)G1,3,4GthiadiazoleG2,5Gdiamine]	3.9 ± 5.4	-14.8 ± 3.7	-15.5 ± 7.2	-13.5 ± 10.7	-37.5 ± 15.3	-20 ± 13.9	-0.9 ± 11.9	101 ± 11.2		11.8 ± 0.3	< 0		89.6 ± 8.9		

Reference: paper PMC5623949, “Exploiting the 2-Amino-1,3,4-thiadiazole Scaffold To Inhibit Trypanosoma brucei Pteridine Reductase in Support of Early-Stage Drug Discovery” (ACS Omega, 2017)
